Experimental findings from BindingDB's records for patent WO2022064009 (JANSSEN PHARMACEUTICA NV, 2022) are described below.

The target of this experiment is CDK-activating kinase assembly factor MAT1/Cyclin-H/Cyclin-dependent kinase 7 (Homo sapiens, UniProt P50613). In words: n Vitro CDK7 (20 nM) Assay. As to the method:
Compounds with potencies approaching the limit of detection of the assay (IC50 < 10 nM) were further assessed in a more sensitive fluorescence end-point assay. […] Absorbance at 340 nm was followed kinetically at an interval of 2 minutes for 8 hours.The assay was carried out with 100 μl reaction volume per well in a 384-well plate that was pre-spotted nanoliter volume of compounds by LabCyte Echo 555. Compound dilution plates were made by 2-fold (could vary upon necessity) dilution in DMSO for 11 concentrations plus a DMSO control of uninhibited reaction. 2x substrate and coupling reagent mixture was added to the assay plate followed by an addition of an equal volume of 40 nM CDK7/Cyclin H/MAT-1 complex. After mixing, assay plates were spun at 2000 rpm for 3 minutes and then transferred to the plate reader for data collection.

CDK-activating kinase assembly factor MAT1/Cyclin-H/Cyclin-dependent kinase 7, sequence (P51946 whole entry): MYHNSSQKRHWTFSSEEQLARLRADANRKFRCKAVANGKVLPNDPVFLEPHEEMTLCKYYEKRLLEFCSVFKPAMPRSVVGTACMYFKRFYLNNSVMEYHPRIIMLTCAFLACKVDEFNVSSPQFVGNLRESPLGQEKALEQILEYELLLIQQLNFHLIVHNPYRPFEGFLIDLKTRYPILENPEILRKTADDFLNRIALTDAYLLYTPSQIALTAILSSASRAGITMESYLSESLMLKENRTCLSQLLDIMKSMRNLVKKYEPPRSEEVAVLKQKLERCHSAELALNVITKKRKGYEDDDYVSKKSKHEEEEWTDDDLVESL
CDK-activating kinase assembly factor MAT1/Cyclin-H/Cyclin-dependent kinase 7, sequence (P50613 whole entry): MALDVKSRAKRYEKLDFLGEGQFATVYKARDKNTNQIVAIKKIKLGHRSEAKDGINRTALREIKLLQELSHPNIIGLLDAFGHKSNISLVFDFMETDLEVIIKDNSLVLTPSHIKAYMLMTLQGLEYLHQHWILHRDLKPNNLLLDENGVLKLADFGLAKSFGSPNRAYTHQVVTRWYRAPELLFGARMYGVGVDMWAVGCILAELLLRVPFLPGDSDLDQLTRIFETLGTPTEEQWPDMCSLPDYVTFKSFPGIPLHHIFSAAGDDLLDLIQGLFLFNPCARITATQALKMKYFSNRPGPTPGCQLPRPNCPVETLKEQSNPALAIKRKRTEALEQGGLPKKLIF
CDK-activating kinase assembly factor MAT1/Cyclin-H/Cyclin-dependent kinase 7, sequence (P51948 whole entry, further chain): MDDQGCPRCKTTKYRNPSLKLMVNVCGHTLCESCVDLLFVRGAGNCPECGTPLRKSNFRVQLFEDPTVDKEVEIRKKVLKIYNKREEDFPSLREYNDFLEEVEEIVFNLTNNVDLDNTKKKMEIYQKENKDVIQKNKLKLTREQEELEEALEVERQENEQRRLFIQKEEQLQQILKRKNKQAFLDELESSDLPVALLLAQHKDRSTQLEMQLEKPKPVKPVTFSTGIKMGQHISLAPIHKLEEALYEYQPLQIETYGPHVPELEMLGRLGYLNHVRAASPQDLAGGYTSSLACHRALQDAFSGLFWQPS

On to `C[C@@H]1Cc2cnc(NC3CCOCC3)nc2CN1C(=O)[C@H]1CCN(C2COC2)C[C@@H]1c1ccccc1` [WO2022064009, Compound 159], for which the IC50 – broadly, the concentration at which inhibition is half-maximal – was 0.575 µM.
